Test results as given in US10975084B2, “KDM5 inhibitors” (Merck Sharp & Dohme Corp., priority 2016, dated 2021).

Target: KDM5B (Homo sapiens (Human), UniProt Q9UGL1)
Test: KDM5B TR-FRET Enzyme Activity Assay
Assay type: biochemical
Conditions: LANCE TR-FRET; 5 nM full-length recombinant KDM5B; ten point titration 100000 nM to 5.08 nM
Method in brief: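 Full-length KDM5B from Sf21 cells (5 nM) was preincubated 30 min with compound in HEPES pH 7.3 buffer with ascorbate and 2 μM Fe(II). Reaction with 500 nM biotinylated H3K4Me3 peptide and 500 nM α-ketoglutarate ran 60 min. Product was detected by TR-FRET (Eu-anti-H3K4Me1-2/streptavidin-Dylight 650, 665/615 ratio); IC50 came from a 4-parameter fit.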

Sequence of KDM5B (Q9UGL1 whole entry): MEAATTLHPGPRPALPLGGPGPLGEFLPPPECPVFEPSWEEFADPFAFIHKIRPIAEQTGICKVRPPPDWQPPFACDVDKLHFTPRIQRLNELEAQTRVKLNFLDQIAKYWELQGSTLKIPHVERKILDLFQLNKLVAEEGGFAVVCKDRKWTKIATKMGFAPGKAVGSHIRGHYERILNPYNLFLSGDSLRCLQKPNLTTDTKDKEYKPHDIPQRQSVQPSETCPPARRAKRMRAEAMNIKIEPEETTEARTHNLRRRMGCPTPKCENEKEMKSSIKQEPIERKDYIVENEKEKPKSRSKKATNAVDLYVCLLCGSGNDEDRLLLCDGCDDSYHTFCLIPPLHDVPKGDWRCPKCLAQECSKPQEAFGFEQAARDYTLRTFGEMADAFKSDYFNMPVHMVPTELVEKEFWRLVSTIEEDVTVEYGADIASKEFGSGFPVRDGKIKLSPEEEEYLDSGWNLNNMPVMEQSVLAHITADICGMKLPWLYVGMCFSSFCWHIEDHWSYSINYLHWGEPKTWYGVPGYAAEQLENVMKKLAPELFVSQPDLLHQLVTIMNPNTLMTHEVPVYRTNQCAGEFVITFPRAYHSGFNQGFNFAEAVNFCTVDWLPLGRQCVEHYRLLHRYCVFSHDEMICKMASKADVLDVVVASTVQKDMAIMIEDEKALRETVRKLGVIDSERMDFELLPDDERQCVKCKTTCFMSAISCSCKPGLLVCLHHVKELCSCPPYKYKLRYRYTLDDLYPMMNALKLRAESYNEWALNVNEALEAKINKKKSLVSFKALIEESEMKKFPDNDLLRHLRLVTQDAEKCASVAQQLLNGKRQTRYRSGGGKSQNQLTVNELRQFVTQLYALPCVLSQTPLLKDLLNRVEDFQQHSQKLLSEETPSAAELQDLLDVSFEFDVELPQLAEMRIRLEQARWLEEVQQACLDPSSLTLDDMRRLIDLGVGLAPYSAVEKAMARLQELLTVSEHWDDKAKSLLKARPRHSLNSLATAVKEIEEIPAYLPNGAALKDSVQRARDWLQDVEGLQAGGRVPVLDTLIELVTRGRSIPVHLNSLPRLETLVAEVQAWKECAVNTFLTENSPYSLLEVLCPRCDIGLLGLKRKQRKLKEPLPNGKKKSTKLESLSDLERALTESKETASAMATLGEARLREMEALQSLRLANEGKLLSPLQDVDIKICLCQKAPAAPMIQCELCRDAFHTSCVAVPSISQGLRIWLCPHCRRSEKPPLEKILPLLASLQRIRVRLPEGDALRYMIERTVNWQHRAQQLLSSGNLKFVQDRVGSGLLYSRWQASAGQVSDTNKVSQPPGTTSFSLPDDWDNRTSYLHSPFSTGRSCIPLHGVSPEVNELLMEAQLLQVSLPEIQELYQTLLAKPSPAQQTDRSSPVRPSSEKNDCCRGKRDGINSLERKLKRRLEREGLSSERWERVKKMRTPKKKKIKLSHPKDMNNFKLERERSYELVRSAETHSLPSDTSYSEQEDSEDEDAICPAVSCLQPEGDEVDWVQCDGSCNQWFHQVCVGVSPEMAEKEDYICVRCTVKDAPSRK

| Structure (SMILES) | IC50 [nM] |
| --- | --- |
| CC(C)c1c(-c2cc3ccccc3n2C)[nH]c2ncnn2c1=O [Example 11-77, 6-(1-methylethyl)-5-(1-methyl-1H-indol-2-yl)[1,2,4]triazolo[1,5-a]pyrimidin-7(4H)-one] | 1260 |
| COC(=O)c1ccc(-c2[nH]c3ncnn3c(=O)c2C(C)C)cc1 [Example 11-79, methyl 4-[6-(1-methylethyl)-7-oxo-4,7-dihydro[1,2,4]triazolo[1,5-a]pyrimidin-5-yl]benzoate] | 19.4 |
| COC(=O)c1cccc(-c2[nH]c3ncnn3c(=O)c2C(C)C)c1 [Example 11-80, methyl 3-[6-(1-methylethyl)-7-oxo-4,7-dihydro[1,2,4]triazolo[1,5-a]pyrimidin-5-yl]benzoate] | 34.2 |
| CC(C)c1c(C2=CC(C)(C)OC(C)(C)C2)[nH]c2ncnn2c1=O [Example 11-81, 6-(1-methylethyl)-5-(2,2,6,6-tetramethyl-3,6-dihydro-2H-pyran-4-yl)[1,2,4]triazolo[1,5-a]pyrimidin-7(4H)-one] | 306 |
| CC(C)c1c(-c2cccc(-n3cccn3)c2)[nH]c2ncnn2c1=O [Example 11-83, 6-(1-methylethyl)-5-[3-(1H-pyrazol-1-yl)phenyl][1,2,4]triazolo[1,5-a]pyrimidin-7(4H)-one] | 21.2 |
| CC(C)c1c(-c2ccc(C(F)(F)F)cc2)[nH]c2ncnn2c1=O [Example 11-84, 6-(1-methylethyl)-5-[4-(trifluoromethyl)-phenyl][1,2,4]triazolo[1,5-a]pyrimidin-7(4H)-one] | 67.2 |
| CC(C)c1c(-c2cccc(C(F)(F)F)c2)[nH]c2ncnn2c1=O [Example 11-85, 6-(1-methylethyl)-5-[3-(trifluoromethyl)phenyl] [1,2,4]triazolo[1,5-a]pyrimidin-7(4H)-one] | 41.2 |
| CC(C)c1c(-c2cc(C(F)(F)F)nn2C)[nH]c2ncnn2c1=O [Example 11-87, 6-(1-methylethyl)-5-[1-methyl-3-(trifluoromethyl)-1H-pyrazol-5-yl][1,2,4]triazolo[1,5-a]pyrimidin-7(4H)-one] | 1220 |
| CC(C)c1c(-c2ccc3ncn(C4CC4)c3c2)[nH]c2ncnn2c1=O [Example 11-89, 5-(1-cyclopropyl-1H-benzimidazol-6-yl)-6-(1-methylethyl)[1,2,4]triazolo[1,5-a]pyrimidin-7(4H)-one] | 21.3 |
| CC(C)c1c(-c2ccnn2Cc2ccccc2)[nH]c2ncnn2c1=O [Example 11-91, 5-(1-benzyl-1H-pyrazol-5-yl)-6-(1-methylethyl)[1,2,4]triazolo[1,5-a]pyrimidin-7(4H)-one] | 634 |
| CC(C)c1c(-c2ccc(N3CCCC3)cc2)[nH]c2ncnn2c1=O [Example 11-94, 6-(1-methylethyl)-5-(4-pyrrolidin-1-ylphenyl)[1,2,4]triazolo[1,5-a]pyrimidin-7(4H)-one] | 20.1 |
| CC(C)c1c(-c2ccc(-n3nccn3)cc2)[nH]c2ncnn2c1=O [Example 11-97, 6-(1-methylethyl)-5-[4-(2H-1,2,3-triazol-2-yl)phenyl][1,2,4]triazolo[1,5-a]pyrimidin-7(4H)-one] | 32.4 |
| CC(C)c1c(-c2ccc(-n3cccn3)cc2F)[nH]c2ncnn2c1=O [Example 11-98, 5-[2-fluoro-4-(1H-pyrazol-1-yl)phenyl]-6-(1-methylethyl)[1,2,4]triazolo[1,5-a]pyrimidin-7(4H)-one] | 122 |
| CC(C)c1c(-c2ccc(N)cc2)[nH]c2ncnn2c1=O [Example 11-99, 5-(4-aminophenyl)-6-(1-methylethyl)[1,2,4]triazolo[1,5-a]pyrimidin-7(4H)-one] | 32.9 |
| CC(C)c1c(-c2ccc(NS(C)(=O)=O)cc2)[nH]c2ncnn2c1=O [Example 11-100, N-{4-[6-(1-methylethyl)-7-oxo-4,7-dihydro[1,2,4]triazolo[1,5-a]pyrimidin-5-yl]phenyl}methanesulfonamide] | 20.1 |
| CC(C)c1c(-c2ccc(N(C)C)cc2)[nH]c2ncnn2c1=O [Example 11-103, 5-[4-(dimethylamino)phenyl]-6-(1-methylethyl)[1,2,4]triazolo[1,5-a]pyrimidin-7(4H)-one] | 36.9 |
| CNc1ccc(-c2[nH]c3ncnn3c(=O)c2C(C)C)cc1 [Example 11-104, 5-[4-(methylamino)phenyl]-6-(1-methylethyl)[1,2,4]triazolo[1,5-a]pyrimidin-7(4H)-one] | 43.8 |

The next compounds have a lower IC50 than those just listed; values first:

| IC50 [nM] | Structure (SMILES) |
| --- | --- |
| 10.4 | CC(C)c1c(-c2ccc3c(cnn3C)c2)[nH]c2ncnn2c1=O [Example 11-78, 6-(1-methylethyl)-5-(1-methyl-1H-indazol-5-yl)[1,2,4]triazolo[1,5-a]pyrimidin-7(4H)-one] |
| 8.78 | CC(C)c1c(-c2ccc(-n3cccn3)cc2)[nH]c2ncnn2c1=O [Example 11-82, 6-(1-methylethyl)-5-[4-(1H-pyrazol-1-yl)phenyl][1,2,4]triazolo[1,5-a]pyrimidin-7(4H)-one] |
| 12.6 | CC(C)c1c(-c2ccc(C(=O)N(C)C)cc2)[nH]c2ncnn2c1=O [Example 11-86, N,N-dimethyl-4-[6-(1-methylethyl)-7-oxo-4,7-dihydro[1,2,4]triazolo[1,5-a]pyrimidin-5-yl]benzamide] |
| 8.57 | CC(C)c1c(-c2ccc(-c3ccncc3)cc2)[nH]c2ncnn2c1=O [Example 11-88, 6-(1-methylethyl)-5-(4-pyridin-4-ylphenyl)[1,2,4]triazolo[1,5-a]pyrimidin-7(4H)-one] |
| 7.26 | CC(C)c1c(-c2ccc(-c3nccn3C)cc2)[nH]c2ncnn2c1=O [Example 11-90, 6-(1-methylethyl)-5-[4-(1-methyl-1H-imidazol-2-yl)phenyl][1,2,4]triazolo[1,5-a]pyrimidin-7(4H)-one] |
| 5.29 | COCC(C)(C)n1cc(-c2[nH]c3ncnn3c(=O)c2C(C)C)cn1 [Example 11-92, 5-[1-(2-methoxy-1,1-dimethylethyl)-1H-pyrazol-4-yl]-6-(1-methylethyl)[1,2,4]triazolo[1,5-a]pyrimidin-7(4H)-one] |
| 15.5 | CC(C)c1c(-c2ccc(N3CCN(C(C)C)CC3)cc2)[nH]c2ncnn2c1=O [Example 11-93, 6-(1-methylethyl)-5-{4-[4-(1-methylethyl)piperazin-1-yl]phenyl}[1,2,4]triazolo[1,5-a]pyrimidin-7(4H)-one] |
| 8.59 | CC(C)c1c(-c2ccc(-n3ccnn3)cc2)[nH]c2ncnn2c1=O [Example 11-95, 6-(1-methylethyl)-5-[4-(1H-1,2,3-triazol-1-yl)phenyl][1,2,4]triazolo[1,5-a]pyrimidin-7(4H)-one] |
| 13.5 | CC(C)c1c(-c2ccc(N3CCS(=O)(=O)CC3)cc2)[nH]c2ncnn2c1=O [Example 11-96, 5-[4-(1,1-dioxidothiomorpholin-4-yl)phenyl]-6-(1-methylethyl)[1,2,4]triazolo[1,5-a]pyrimidin-7(4H)-one] |
| 7.57 | CC(C)c1c(-c2ccc3c(c2)CCC(=O)N3)[nH]c2ncnn2c1=O [Example 11-101, 6-[6-(1-methylethyl)-7-oxo-4,7-dihydro[1,2,4]triazolo[1,5-a]pyrimidin-5-yl]-3,4-dihydroquinolin-2(1H)-one] |
| 17.8 | CC(C)c1c(-c2ccc3c(c2)OCC(=O)N3)[nH]c2ncnn2c1=O [Example 11-102, 7-[6-(1-methylethyl)-7-oxo-4,7-dihydro[1,2,4]triazolo[1,5-a]pyrimidin-5-yl]-2H-1,4-benzoxazin-3(4H)-one] |
